Data on 23 molecules can be found in ChEMBL document CHEMBL2169779, “Mitigating heterocycle metabolism in drug discovery” (J Med Chem, 2012).

Data set [1] in a line: Drug metabolism in rat liver microsomes at 10 uM. It counts as ADME, Microsome. The settings on record: read-out: Drug metabolism. In general terms: Liver microsomes are vesicles of endoplasmic reticulum, rich in cytochrome P450 enzymes.
Data set [2] in a line: Volume of distribution at steady state in Sprague-Dawley rat at 1 mg/kg, iv. The format is ADME, organism-based. Also on record: dose 1 mg/kg, route intravenous. Conditions: in vivo, read-out: Vdss.
A short description of data set [3]: Oral bioavailability in Sprague-Dawley rat at 5 mg/kg. Conditions: in vivo. It counts as ADME, organism-based.
A short description of data set [4]: Half life in Sprague-Dawley rat at 1 mg/kg, iv. The format is ADME, organism-based. Also on record: dose 1 mg/kg, route intravenous. Conditions: in vivo.
Data set [5] is described as follows: Plasma clearance in Sprague-Dawley rat at 1 mg/kg, iv. It counts as ADME, organism-based. Also on record: dose 1 mg/kg, route intravenous.
In data set [6] the target is Metabotropic glutamate receptor 5 (Homo sapiens, UniProt P41594). As to the kind of experiment: Antagonist activity at mGlu5 receptor. It counts as functional.
Metabotropic glutamate receptor 5, sequence (P41594 whole entry): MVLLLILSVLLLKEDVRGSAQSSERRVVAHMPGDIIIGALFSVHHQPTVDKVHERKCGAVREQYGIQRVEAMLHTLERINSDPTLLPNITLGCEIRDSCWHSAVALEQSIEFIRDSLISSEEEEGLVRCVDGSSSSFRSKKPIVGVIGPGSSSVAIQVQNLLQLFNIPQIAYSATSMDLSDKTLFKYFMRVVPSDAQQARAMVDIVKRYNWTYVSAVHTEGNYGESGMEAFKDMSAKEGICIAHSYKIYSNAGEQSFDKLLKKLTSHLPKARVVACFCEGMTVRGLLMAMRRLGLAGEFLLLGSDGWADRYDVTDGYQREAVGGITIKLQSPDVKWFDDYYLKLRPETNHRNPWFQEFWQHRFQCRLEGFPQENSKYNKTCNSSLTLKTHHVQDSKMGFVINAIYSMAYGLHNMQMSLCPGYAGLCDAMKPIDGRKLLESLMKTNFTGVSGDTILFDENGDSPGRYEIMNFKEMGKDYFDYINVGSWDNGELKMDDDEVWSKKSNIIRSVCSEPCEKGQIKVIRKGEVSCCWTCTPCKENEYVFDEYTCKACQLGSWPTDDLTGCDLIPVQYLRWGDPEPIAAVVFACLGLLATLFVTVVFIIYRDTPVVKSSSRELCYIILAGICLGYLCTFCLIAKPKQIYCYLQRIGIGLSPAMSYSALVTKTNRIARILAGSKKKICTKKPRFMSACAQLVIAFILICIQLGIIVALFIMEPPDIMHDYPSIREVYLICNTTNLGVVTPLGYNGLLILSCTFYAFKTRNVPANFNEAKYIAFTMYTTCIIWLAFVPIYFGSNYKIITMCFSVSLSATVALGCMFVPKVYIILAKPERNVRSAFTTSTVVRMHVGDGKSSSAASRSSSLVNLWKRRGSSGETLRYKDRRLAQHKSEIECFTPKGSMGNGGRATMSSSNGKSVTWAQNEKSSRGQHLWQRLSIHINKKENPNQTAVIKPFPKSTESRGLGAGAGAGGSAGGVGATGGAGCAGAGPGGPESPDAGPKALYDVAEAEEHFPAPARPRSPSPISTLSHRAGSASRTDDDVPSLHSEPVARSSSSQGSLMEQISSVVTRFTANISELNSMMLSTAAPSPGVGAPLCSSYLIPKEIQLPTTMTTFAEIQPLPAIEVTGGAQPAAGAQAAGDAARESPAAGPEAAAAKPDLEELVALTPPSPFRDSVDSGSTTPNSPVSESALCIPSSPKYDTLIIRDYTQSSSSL
The nature of data set [7]: in vivo. The settings on record: Wistar, rat.
Data set [8] can be described thus: Volume of distribution at steady state in Wistar rat. It counts as ADME, organism-based. Conditions: in vivo, read-out: Vdss.
Data set [9] in a line: Intrinsic clearance in Wistar rat. The settings on record: in vivo. The format is ADME, organism-based.
Data set [10] can be described thus: in vivo. Conditions: Wistar, rat, po.
Description: Oral bioavailability in Wistar rat
A short description of data set [11]: physchem.
Description: Dissociation constant, pKa of the compound

For the molecule `Cc1cn([C@H](C)C2CC2)c(=O)c(Nc2c(Cl)cc(OC(F)F)cc2Cl)n1`, in data set [1], the metabolised at 10 µM stood at 7%.
Broadly, the bioavailability is dose-corrected exposure relative to a reference, in per cent. Broadly, the half-life is how long it takes for the measured level to halve. Lower therefore signals rapid decline. The term clearance denotes the volume of plasma or blood freed of the substance per unit of time. As for `O=C(Nc1nc(-c2ccc(F)c(C(F)(F)F)c2)ns1)c1cnc(N2CCC(C(=O)O)CC2)c(Cl)c1`, the Vd in data set [2] was 0.22 L/kg. Also, the bioavailability in data set [3] came to 73.5%. Also, the half-life in data set [4] was 1.09 h. The molecule also showed a clearance in data set [5] of 1.49 mL/min/kg.
In the same order, the values of `O=C(Nc1nc(-c2ccc(F)c(C(F)(F)F)c2)c(F)s1)c1cnc(N2CCC(C(=O)O)CC2)c(Cl)c1` are 0.34 L/kg, 73%, 1.67 h and 2.79 mL/min/kg.
In the same order, the values of `O=C(Nc1nc(-c2ccc(F)c(C(F)(F)F)c2)cs1)c1cnc(N2CCC(C(=O)O)CC2)c(Cl)c1` are 0.83 L/kg, 66.8%, 1.34 h and 6.89 mL/min/kg.
The Ki is the dissociation constant of the complex between target and ligand, obtained from inhibition or displacement. Regarding `Cc1nc(C(=O)Nc2ccc(O)c(C)n2)c(Nc2cccnc2)s1`, the Ki in data set [6] stood at 111 nM.
Same read-out and setting: then `Cc1cccc(NC(=O)c2nc(C)sc2Nc2cccnc2)n1`, with 9 nM; and `Cc1nc(C(=O)Nc2cccc(CO)n2)c(Nc2cccnc2)s1`, with 67 nM.
Molecule `Cc1cc(NC(=O)c2nc(C)sc2Nc2cccnc2)ccn1` yielded a Ki in data set [6] of 44 nM.
As for `Cc1cc(NC(=O)c2nc(C)sc2Nc2cncnc2)ccn1`, in data set [6], the affinity corresponds to a Ki of 81 nM.
Still for that read-out and setting: then `Cc1nc(C(=O)Nc2ccc(F)cn2)c(Nc2cccnc2)s1`, with 13 nM; and `Cc1nc(C(=O)Nc2ccc(F)cn2)c(Nc2cncnc2)s1`, with 31 nM.
In the case of `C[C@@H](C1CC1)n1cc(Br)nc(Nc2c(Cl)cc(OC(F)F)cc2Cl)c1=O`, the metabolised at 10 µM in data set [1] amounted to 4%.
For orientation: CLint scaled means the capacity of the preparation to metabolise the compound, expressed as a volume cleared per time. Low values mean greater metabolic stability, high ones faster metabolism. Regarding `CC(C)N1CCC(Oc2ccc3[nH]c(C(=O)N4CCOCC4)cc3c2)CC1`, in [7], the half-life was 1.1 h. The Vd in data set [8] turned out to be 3.5 L/kg. In [9], the CLint scaled worked out at 50 mL/min/kg.
On to `CC(C)N1CCC(Oc2ccc3[nH]c(C(=O)N4CCC(F)(F)CC4)cc3c2)CC1`, for which the Vd in data set [8] stood at 6 L/kg. The molecule also showed a bioavailability in data set [10] of 100%. In data set [9], this molecule showed a CLint scaled of 18 mL/min/kg.
With `C[C@H](C1CC1)n1cc(C#N)nc(Nc2c(Cl)cc(OC(F)F)cc2Cl)c1=O`, the metabolised at 10 µM in [1] was 1%.
On the same count and under the same terms, then `C[C@@H](C1CC1)n1cc(Cl)nc(Nc2c(Cl)cc(OC(F)F)cc2Cl)c1=O`, with 20%.
The term pKa denotes the negative logarithm of the acid dissociation constant. High values mean a weaker acid or stronger base, low ones a stronger acid or weaker base. For the molecule `C1CCCNCC1` [AZEPANE], in [11], the pKa was determined as 10.9.
The same measure, in the same setting: then `C1CNC1` [AZETIDINE], with 10.7.
Still for that read-out and setting: for `c1cnsc1` [ISOTHIAZOLE] the value was -0.51.
The same measure, in the same setting: then `c1cocn1` [OXAZOLE], with 0.8; and `c1cnccn1` [PYRAZINE], with 0.4.
On to `c1cn[nH]c1` [PYRAZOLE], for which, in data set [11], the pKa was found to be 2.52.
Still for that read-out and setting: then `c1ccnnc1` [PYRIDAZINE], with 2.3.
